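Growth conditions: 96-well plates. Treatment: test compound, 48 hours, 5 concentrations. Analysis: linear interpolation between bracketing concentrations; unreached endpoints set to highest concentration. GI50: concentration for 50% inhibition of growth.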 Active and inactive are the calls of the source. No stated cut-off is given here; in the data, active = GI50 up to about 1.1 µM and inactive = higher.
Assays:
Test in all cases: NCI-60 cell line screen, 48 h
[1] = tested on: 786-0
[2] = tested on: A549
[3] = tested on: COLO 205
[4] = tested on: HCC 2998
[5] = tested on: HT-29
[6] = tested on: IGROV-1
[7] = tested on: MCF7
[8] = tested on: Malme-3M
[9] = tested on: NCI-H226
[10] = tested on: OVCAR-4
[11] = tested on: OVCAR-5
[12] = tested on: PC-3
[13] = tested on: SF-295
[14] = tested on: SK-MEL-5
[15] = tested on: SK-OV-3
[16] = tested on: SN12C
[17] = tested on: U-251
[18] = tested on: UACC-257
[19] = tested on: UO-31
[20] = tested on: HL-60

Measured: GI50

Cc1nnc2n1-c1ccccc1C(=S)N1CSCC21 (stereo not drawn)
inactive: [1] > 100 µM | [2] > 100 µM | [3] > 100 µM | [4] > 100 µM | [5] > 100 µM | [6] > 100 µM | [7] > 100 µM | [8] > 100 µM | [9] > 100 µM | [10] > 100 µM | [11] > 100 µM | [12] > 100 µM | [13] > 100 µM | [14] > 100 µM | [15] > 100 µM | [16] > 100 µM | [17] > 100 µM | [18] > 100 µM | [19] > 100 µM

CCOC(=O)C1=C(N2CCCC2)C(=O)C(C(=O)OCC)C1 (stereo not drawn)
inactive: [1] > 100 µM | [2] > 100 µM | [3] > 100 µM | [4] > 100 µM | [6] > 100 µM | [7] > 100 µM | [8] > 100 µM | [9] > 100 µM | [10] > 100 µM | [11] > 100 µM | [12] > 100 µM | [13] > 100 µM | [14] > 100 µM | [15] > 100 µM | [16] > 100 µM | [17] > 100 µM | [18] > 100 µM | [19] > 100 µM

O=C(/C=C1/Nc2ccc([N+](=O)[O-])cc2N/C1=C/C(=O)c1ccc(Cl)cc1)c1ccc(Cl)cc1
inactive: [1] > 100 µM | [2] > 100 µM | [3] > 100 µM | [4] > 100 µM | [5] > 100 µM | [6] > 100 µM | [7] 49.5 µM | [8] > 100 µM | [9] > 100 µM | [10] > 100 µM | [11] > 100 µM | [12] 41.4 µM | [13] 91 µM | [14] 33.3 µM | [16] 17.7 µM | [17] > 100 µM | [18] > 100 µM | [19] > 100 µM

CCOC(=O)C(NC(=O)Nc1ccc(Cl)c(Cl)c1)C(F)(F)F (stereo not drawn)
inactive: [1] > 100 µM | [2] > 100 µM | [3] > 100 µM | [4] > 100 µM | [20] > 100 µM | [5] > 100 µM | [6] > 100 µM | [11] > 100 µM | [12] > 100 µM | [14] > 100 µM | [15] > 100 µM | [16] > 100 µM | [17] > 100 µM | [18] > 100 µM | [19] 49.8 µM

O=C(CC(NC(=O)OCc1ccccc1)C(=O)NC1Cc2ccccc2C1=O)OCc1ccccc1 (stereo not drawn)
inactive: [1] > 100 µM | [2] > 100 µM | [4] > 100 µM | [5] > 100 µM | [6] > 100 µM | [7] > 100 µM | [8] > 100 µM | [9] > 100 µM | [11] > 100 µM | [12] > 100 µM | [13] > 100 µM | [14] > 100 µM | [15] > 100 µM | [16] > 100 µM | [17] > 100 µM | [18] 86.5 µM | [19] > 100 µM

O=C(O)C/N=C(\C(=N\CC(=O)O)c1ccccc1)c1ccccc1
inactive: [1] > 100 µM | [2] > 100 µM | [3] > 100 µM | [4] > 100 µM | [7] > 100 µM | [8] > 100 µM | [9] > 100 µM | [10] > 100 µM | [11] > 100 µM | [12] > 100 µM | [13] > 100 µM | [15] > 100 µM | [16] > 100 µM | [17] > 100 µM | [18] > 100 µM | [19] 90.2 µM

Cn1c(=O)nc2n(CCO)ccnc-2c1=O
inactive: [1] > 100 µM | [2] > 100 µM | [3] > 100 µM | [4] > 100 µM | [5] > 100 µM | [6] > 100 µM | [7] > 100 µM | [8] > 100 µM | [9] > 100 µM | [10] > 100 µM | [11] > 100 µM | [12] > 100 µM | [13] > 100 µM | [14] > 100 µM | [16] > 100 µM | [17] > 100 µM | [18] > 100 µM | [19] > 100 µM

CSc1nc(Cl)c2c(n1)Sc1nc3ccccc3n1N=C2
inactive: [1] 28.2 µM | [2] 45.2 µM | [3] 23 µM | [4] 26.5 µM | [5] 23.2 µM | [6] 17 µM | [8] 25.8 µM | [9] 62.7 µM | [10] 29.4 µM | [11] 28.9 µM | [12] 22.3 µM | [13] > 100 µM | [14] 21.3 µM | [15] > 100 µM | [16] 37.8 µM | [17] 55.6 µM | [18] 35.8 µM | [19] 18.5 µM

O=C1C=CC2(C=C1)CCC(=O)O2
inactive: [1] 15 µM | [2] 20.6 µM | [3] 11 µM | [4] 14.2 µM | [5] 22.9 µM | [6] 10.8 µM | [7] 13.4 µM | [8] 5.58 µM | [9] 19.2 µM | [10] 14.8 µM | [11] 22.7 µM | [12] 12.6 µM | [13] 19.8 µM | [14] 16.3 µM | [16] 16.1 µM | [17] 7.18 µM | [18] 18.7 µM | [19] 15.1 µM

O=C1c2ccccc2C(=O)N1n1c(Cc2ccc(Cl)cc2)n[nH]c1=O
inactive: [1] > 100 µM | [2] > 100 µM | [3] > 100 µM | [4] > 100 µM | [5] > 100 µM | [6] > 100 µM | [7] > 100 µM | [8] > 100 µM | [9] > 100 µM | [10] > 100 µM | [11] > 100 µM | [12] > 100 µM | [13] > 100 µM | [14] > 100 µM | [16] > 100 µM | [17] > 100 µM | [18] > 100 µM | [19] > 100 µM

Nc1ccc2ccc(-c3ccc[nH]3)nc2n1
inactive: [1] > 100 µM | [2] > 100 µM | [3] > 100 µM | [4] > 100 µM | [6] > 100 µM | [7] > 100 µM | [8] > 100 µM | [9] > 100 µM | [10] > 100 µM | [11] > 100 µM | [12] > 100 µM | [13] > 100 µM | [14] > 100 µM | [15] > 100 µM | [16] > 100 µM | [17] > 100 µM | [18] > 100 µM | [19] > 100 µM
